Test results reported in patent publication US9205089B2, “Layer processing for pharmaceuticals” (Massachusetts Institute of Technology, priority 2011, dated 2015).

How the values were obtained:
Type in all cases: physicochemical
[1] = DSC glass transition of rapid quench 50% ACM layers; conditions: 50% ACM loading, DSC 10° C./min
Protocol: All analyses were carried out in triplicate.
Most thin layer drug products are initially amorphous, but tend to crystallize slowly over time. Time and material consuming storage experiments are usually required to study the stability of amorphous drug candidate. It is necessary to predict the amorphous stability of drug candidates early in the formulation process. However, the glass transition temperature of the polymer is masked by the melting peak of the drug and little extra information can be extracted. The DSC heating curve for a sample quench cooled after being melted gave information on the glass transition temperature, the crystallisation exotherm, and the melting endotherm (FIG. 21). Samples were prepared by melting in closed DSC pans from R.T. to 200° C. at a rate of 10° C./min and subsequently cooled to −10° C. at a cooling rate of 10° C./min. The pure ACM phases were well studied by DSC; the amorphous form a glass transition peak at 24.8° C., a crystallization peak between 65° C. to 100° C., a solid state transition at about 130° C. from Form III to Form II, and a melting peak for Form II at about 158° C.

[2] = Crystallization time of ACM in layers with different excipients; conditions: 50% ACM layers
[3] = Stability test of […]/HPMC thin layer tablets stored at 40° C., 75% R.H. (HPLC); conditions: Pure ALISKIREN (starting drug substance)
Protocol: Tablet forming was done by Instron and a force of up to 25 kN (9 mm diameter die) was recorded. The as-made thin layer tablets are then coated by Opadry AMB for 60 min, with the final coating taking up 10% of the tablet weight. Every 30 tablets were stored in a plastic vial of about 40 ml in volume together with a small standard drying bag. Vials were sealed using aluminum foil and placed at 40° C. for 75% R.H. for 1 month or 3 months. Samples of Aliskiren/HPMC thin layer tablets were tested by HPLC after peeling off the blue coating materials to avoid cross contamination. […] Water content was measured using a […] volumetric KF titration from Mettler Toledo. […] drug purity was verified by Agilent […] series high performance liquid chromatography (HPLC). All analyses were carried out in triplicate. […] The as-obtained tablets were then coated by Opadry AMB and placed at 40° C. for 75% R.H. for 1-month or 3-months stability tests.

[4] = HPLC purity of aliskiren in Aliskiren/HPMC layers under different drying conditions
Protocol: (§1) Water content was measured using a […] volumetric KF titration from Mettler Toledo. […] […] drug purity was verified by Agilent […] series high performance liquid chromatography (HPLC). All analyses were carried out in triplicate. […] In order to confirm the chemical stability of the drug, HPLC was used. Different experiments were carried out to examine the level of degradation of aliskiren as the drying temperature and time increased. […] The highest allowable drying temperature was set to be 70° C. At 70° C., 60 min was the minimum drying time required to have layers that peel easily and that contain solvent content under regulatory requirements (ethanol<0.5% and water %<0.5%). The layers were stored in a vacuum desiccator overnight to remove excess solvent, and then sealed under vacuum for storage and further characterization.

[5] = Solvent inspection of dried layers after storage in desiccator overnight
Protocol: as §1

**Q.** What does the source list for CC(=O)Nc1ccc(O)cc1 [ACM only, Acetaminophen]?
**A.** Tg [1]: 24.8 °C; Crystallization time [2]: <6 h

**Q.** With COCCCOc1cc(C[C@@H](C[C@H](N)[C@@H](O)C[C@H](C(=O)NCC(C)(C)C(N)=O)C(C)C)C(C)C)ccc1OC [Aliskiren] as the compound, how does the “Purity of ALISKIREN” value [3] read?
**A.** 99.6%

**Q.** What about the ALISKIREN purity % ([4]; drying 30° C., 180 min) of the same compound?
**A.** 99.6%

**Q.** What about the “One single impurity >0.2%” value ([4]; drying 30° C., 180 min) of the same compound?
**A.** No

**Q.** And the ALISKIREN purity % ([4]; drying 50° C., 90 min)?
**A.** 99.5%

**Q.** And the “One single impurity >0.2%” value ([4]; drying 50° C., 90 min)?
**A.** No

**Q.** And the ALISKIREN purity % ([4]; drying 50° C., 180 min)?
**A.** 99.5%

**Q.** What about the “One single impurity >0.2%” value ([4]; drying 50° C., 180 min) of the same compound?
**A.** No

**Q.** What about the ALISKIREN purity % ([4]; drying 70° C., 30 min) of the same compound?
**A.** 99.5%

**Q.** What about the “One single impurity >0.2%” value ([4]; drying 70° C., 30 min) of the same compound?
**A.** No

**Q.** And the ALISKIREN purity % ([4]; drying 70° C., 60 min)?
**A.** 99.3%

**Q.** And the “One single impurity >0.2%” value ([4]; drying 70° C., 60 min)?
**A.** No

**Q.** What about the ALISKIREN purity % ([4]; drying 70° C., 90 min) of the same compound?
**A.** 99.2%

**Q.** And the “One single impurity >0.2%” value ([4]; drying 70° C., 90 min)?
**A.** No

**Q.** What about the ALISKIREN purity % ([4]; drying 90° C., 30 min) of the same compound?
**A.** 98.8%

**Q.** And the “One single impurity >0.2%” value ([4]; drying 90° C., 30 min)?
**A.** Yes

**Q.** And the “Solvent inspection (<0.5%) after stored in dessicator overnight” value (from here on “Solvent inspection (<0.5%) after stored”) ([5]; drying 30° C., 180 min)?
**A.** Yes

**Q.** And the “Solvent inspection (<0.5%) after stored” value ([5]; drying 50° C., 90 min)?
**A.** Yes

**Q.** And the “Solvent inspection (<0.5%) after stored” value ([5]; drying 50° C., 180 min)?
**A.** Yes

**Q.** What about the “Solvent inspection (<0.5%) after stored” value ([5]; drying 70° C., 60 min) of the same compound?
**A.** Yes

**Q.** What about the “Solvent inspection (<0.5%) after stored” value ([5]; drying 70° C., 90 min) of the same compound?
**A.** Yes
